Structures are written as SMILES. Structures can show the parent of a compound that is named as a salt.

Usually IC50 stands for the concentration at which inhibition is half-maximal. A higher IC50 goes with weaker potency in that assay.

The target in the assay is T1, PLA2 (phospholipase A2) (Rattus norvegicus, UniProt P14423).
T1 construct: from tissue; host or cells: rat platelets
T1 sequence (P14423 22-146): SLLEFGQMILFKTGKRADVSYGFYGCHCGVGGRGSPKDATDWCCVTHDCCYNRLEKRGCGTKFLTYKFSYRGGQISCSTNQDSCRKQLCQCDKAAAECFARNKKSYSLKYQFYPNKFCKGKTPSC
Briefly: Phospholipase A2 inhibitory activity (release of free fatty acid from 14C-labelled phosphatidylethanolamine). Type of assay: biochemical. The settings on record: PLA2 from rat platelets; CaCl2 (3 mM) in Tris-buffer (0.1 M, pH 7.4); 37 °C for 20 minutes. The procedure: The compounds of the present invention were tested for their Phospholipase A2 inhibitory activity by the following procedure.
1-Palmitoyl-2-[1-^14C]-linoleoyl L-3-Phosphatidylethanolamine (Amersham, Inc., 59 mCi/mmol) were diluted with L-α-phosphatidylethanolamine (Sigma, Co., from […]) [2,000 dpm/nmol], and the dilution was sonicated. The resultant dilution was used as a substrate. The PLA2 (phospholipase A2) which was used in the test was from rat platelets. The PLA2 and the substrate preparation were added to a solution of CaCl2 (3 mM) in Tris-buffer (0.1 M, pH 7.4), and the mixture was allowed to react at 37 °C for 20 minutes. Then, the reaction was terminated by adding 1.25 ml of Dole's reagent to the reaction mixture and stirring immediately the resultant mixture. To the mixture was added 0.5 ml of distilled water and 0.8 ml of n-heptane, and the mixture was stirred, centrifuged, and the supernatant was taken into another tube. To this supernatant were added an additional 0.8 ml of n-heptane and silica gel, and the mixture was stirred, centrifuged, and the supernatant was taken into vials. Toluene cocktail was added to the vials. The amount of free fatty acid released by PLA2 was determined using a liquid scintillation counter.
Inhibitory activity (%) was estimated by the formula: [(DPM value at the addition of the inhibitor - DPM value without PLA2) / (DPM value with only PLA2 - DPM value without PLA2)] × 100.
In the case of `COc1c(C)c(OCc2ccccc2)c(C)c(C)c1C(=O)O` [Compound 8], the IC50 is above 330 µM.

Turning to `COc1c(C)c(O)c(C)c(C)c1C(=O)O` [Compound 9], the IC50 is above 480 µM. The result for `COc1c(C)c(OC)c(C(=O)Oc2c(C)c(C)c(C(=O)Oc3c(C)c(C)c(C(=O)O)c(OC)c3C)c(OC)c2C)c(C)c1Cc1c(C)c(C(=O)Oc2c(C)c(C)c(C(=O)Oc3c(C)c(C)c(C(=O)O)c(OC)c3C)c(OC)c2C)c(OC)c(C)c1OC` [Compound 44, Bis[5-[4'-(4''-carboxy-3''-methoxy-2'',5'',6''-trimethylphenoxycarbonyl)-3'-methoxy-2',5',6',-trimethylphenoxycarbonyl]-2,4-dimethoxy-3,6-dimethylphenyl] methane] reads 0.13 µM; that for `COc1c(C)c(OC)c(C(=O)O)c(C)c1Cc1c(C)c(C(=O)Oc2c(C)c(C)c(C(=O)Oc3c(C)c(C)c(C(=O)O)c(OC)c3C)c(OC)c2C)c(OC)c(C)c1OC` [Compound 48], 3 µM; that for `COc1c(C)c(OC)c(C(=O)Oc2c(C)c(C)c(C(=O)O)c(OC)c2C)c(C)c1Cc1c(C)c(C(=O)Oc2c(C)c(C)c(C(=O)O)c(OC)c2C)c(OC)c(C)c1OC` [Compound 50], 4.6 µM. The result for `COc1c(C)c(OC(=O)c2c(C)c(C)c(OC(=O)c3cccc(C(=O)Oc4c(C)c(C)c(C(=O)Oc5c(C)c(C)c(C(=O)O)c(OC)c5C)c(OC)c4C)c3)c(C)c2OC)c(C)c(C)c1C(=O)O` [Compound 52] reads 0.16 µM. Next, `COc1c(C)c(OC(=O)c2c(C)c(C)c(OC(=O)c3cc(=O)cc(C(=O)Oc4c(C)c(C)c(C(=O)Oc5c(C)c(C)c(C(=O)O)c(OC)c5C)c(OC)c4C)o3)c(C)c2OC)c(C)c(C)c1C(=O)O` [Compound 54]: 0.88 µM.

For `COc1cc(OC)c(C(=O)Oc2c(C)c(C)c(C(=O)Oc3c(C)c(C)c(C(=O)O)c(OC)c3C)c(OC)c2C)cc1Oc1cc(C)c(OC)c(C(=O)Oc2c(C)c(C)c(C(=O)Oc3c(C)c(C)c(C(=O)O)c(OC)c3C)c(OC)c2C)c1` [Compound 56], the IC50 stood at 0.035 µM. Next, `CCCCOC(=O)c1cc(Sc2ccc(OC)c(C(=O)Oc3c(C)c(C)c(C(=O)O)c(OC)c3C)c2)ccc1OC` [Compound 59, n-Butyl 3-[3'-(4''-carboxy-3''-methoxy-2'',5'',6''-trimethylphenoxycarbonyl)-4'-methoxyphenyl]-thio-6-methoxybenzoate]: 1.45 µM. Next, `Cc1c(O)c(Cc2c(C)c(C(=O)Oc3c(C)c(C)c(C(=O)Oc4c(C)c(C)c(C(=O)O)c(O)c4C)c(O)c3C)c(O)c(C)c2O)c(C)c(C(=O)Oc2c(C)c(C)c(C(=O)Oc3c(C)c(C)c(C(=O)O)c(O)c3C)c(O)c2C)c1O` [Compound 62, Bis[5-[4'-(4''-carboxy-3''-hydroxy-2'',5'',6''-trimethylphenoxycarbonyl)-3'-hydroxy-2',5',6'-trimethylphenoxycarbonyl]-2,4-dihydroxy-3,6-dimethylphenyl] methane]: 0.95 µM; `COc1c(C)c(OC)c(C(=O)Oc2cc(C)c(C(=O)Oc3c(C)c(C)c(C(=O)Oc4c(C)c(C)c(C(=O)O)c(OC)c4C)c(OC)c3C)c(O)c2C)c(C)c1Oc1ccc(C[C@H](N)C(=O)O)cc1` [Compound 74, [5-[4'-[4''-(4'''-Carboxy-3'''-methoxy-2''',5''',6'''-trimethylphenoxycarbony)-3''-methoxy-2'',5'',6''-trimethylphenoxycarbony]-3'-hydroxy-2',5'-dimethylphenoxycarbony]-2,4-dimethoxy-3,6-dimethylphenyl] [4''''-(2'''''-amino-2'''''-carboxyethyl)phenyl] ether trifluoroacetate]: 0.07 µM; `COc1c(C)c(OC)c(C(=O)Oc2c(C)c(O)cc(C)c2C(=O)Oc2c(C)c(C)c(C(=O)Oc3c(C)c(C)c(C(=O)O)c(OC)c3C)c(OC)c2C)c(C)c1Oc1ccc(C[C@H](N)C(=O)O)cc1` [Compound 77, [5-[6'-[4''-(4'''-Carboxy-3'''-methoxy-2''',5''',6'''-trimethylphenoxycarbony)-3''-methoxy-2'',5'',6''-trimethylphenoxycarbony]-3'-hydroxy-2',5'-dimethylphenoxycarbony]-2,4-dimethoxy-3,6-dimethylphenyl] [4''''-(2'''''-amino-2'''''-carboxyethyl)phenyl] ether trifluoroacetate]: 0.34 µM. The result for `COc1ccc(Sc2ccc(OC)c(C(=O)Oc3c(C)c(C)c(C(=O)Oc4c(C)c(C)c(C(=O)O)c(OC)c4C)c(OC)c3C)c2)cc1C(=O)Oc1c(C)c(C)c(C(=O)Oc2c(C)c(C)c(C(=O)O)c(OC)c2C)c(OC)c1C` [Compound 104a, Bis[3-[4'-[(4''-carboxy-3''-methoxy-2'',5'',6''-trimethyl)phenoxycarbony]-3'-methoxy-2',5',6'-trimethyl]-phenoxycarbony-4-methoxyphenyl] sulfide] reads 0.049 µM.

Consider `COc1ccc(S(=O)(=O)c2ccc(OC)c(C(=O)Oc3c(C)c(C)c(C(=O)Oc4c(C)c(C)c(C(=O)O)c(OC)c4C)c(OC)c3C)c2)cc1C(=O)Oc1c(C)c(C)c(C(=O)Oc2c(C)c(C)c(C(=O)O)c(OC)c2C)c(OC)c1C` [Compound 104b, Bis[3-[4'-[(4''-carboxy-3''-methoxy-2'',5'',6''-trimethyl)phenoxycarbony]-3'-methoxy-2',5',6'-trimethyl]-phenoxycarbony-4-methoxyphenyl] sulfone], for which the half-inhibitory concentration (IC50) came to 0.05 µM. `COc1ccc([S+]([O-])c2ccc(OC)c(C(=O)Oc3c(C)c(C)c(C(=O)Oc4c(C)c(C)c(C(=O)O)c(OC)c4C)c(OC)c3C)c2)cc1C(=O)Oc1c(C)c(C)c(C(=O)Oc2c(C)c(C)c(C(=O)O)c(OC)c2C)c(OC)c1C` [Compound 104c, Bis[3-[4'-[(4''-carboxy-3''-methoxy-2'',5'',6''-trimethyl)phenoxycarbony]-3'-methoxy-2',5',6'-trimethyl]-phenoxycarbony-4-methoxyphenyl] sulfoxide] yielded an IC50 of 0.12 µM.

Turning to `COc1ccc(Sc2ccc(OC)c(C(=O)Oc3c(C)c(C)c(C(=O)Oc4c(C)c(C)c(C(=O)O)c(OC)c4C)c(OC)c3C)c2)cc1C(=O)O` [Compound 108], inhibition was half-maximal at 2.1 µM (IC50). Next, `COc1ccc(Oc2ccc(OC)c(C(=O)Oc3c(C)c(C)c(C(=O)O)c(OC)c3C)c2)cc1C(=O)Oc1c(C)c(C)c(C(=O)O)c(OC)c1C` [Compound 110a, Bis[3-[4'-carboxy-3'-methoxy-2',5',6'-trimethylphenoxycarbonyl)-4-methoxyphenyl] ether]: 3.4 µM.

Consider `COc1ccc(Sc2ccc(OC)c(C(=O)Oc3c(C)c(C)c(C(=O)O)c(OC)c3C)c2)cc1C(=O)Oc1c(C)c(C)c(C(=O)O)c(OC)c1C` [Compound 110b, Bis[3-(4'-carboxy-3'-methoxy-2',5',6'-trimethylphenoxycarbonyl)-4-methoxyphenyl] sulfide], for which the IC50 was 2.5 µM. For `COc1ccc(Oc2ccc(OC)c(C(=O)Oc3c(C)c(C)c(C(=O)Oc4c(C)c(C)c(C(=O)O)c(OC)c4C)c(OC)c3C)c2)cc1C(=O)Oc1c(C)c(C)c(C(=O)Oc2c(C)c(C)c(C(=O)O)c(OC)c2C)c(OC)c1C` [Compound 120], the IC50 stood at 0.042 µM. Next, `COc1c(C)c(OC(=O)c2c(C)c(C)c(OC(=O)/C=C/C(=O)Oc3c(C)c(C)c(C(=O)Oc4c(C)c(C)c(C(=O)O)c(OC)c4C)c(OC)c3C)c(C)c2OC)c(C)c(C)c1C(=O)O` [Compound 121, Trans-1,2-bis[4'-(4''-carboxy-3''-methoxy-2'',5'',6''-trimethylphenoxycarbonyl)-3^'-methoxy-2',5',6'-trimethylphenoxycarbony] ethene]: 0.33 µM. The result for `COc1c(C)c(OC(=O)c2c(C)c(C)c(OC(=O)CCC(=O)Oc3c(C)c(C)c(C(=O)Oc4c(C)c(C)c(C(=O)O)c(OC)c4C)c(OC)c3C)c(C)c2OC)c(C)c(C)c1C(=O)O` [Compound 122, 1,2-Bis[4'-[4''-carboxy-3''-methoxy-2'',5'',6''-trimethylphenoxycarbonyl)-3'-methoxy-2',5',6'-trimethylphenoxycarbony] ethane] reads 0.04 µM.

Values taken from patent publication EP0547231B1, “PHOSPHOLIPASE A2 INHIBITOR” (SHIONOGI & CO., LTD., priority 1991, dated 1993).
